Reference: patent publication US10450260B2, “NO- and H2S-releasing compounds” (RESEARCH FOUNDATION OF THE CITY UNIVERSITY OF NEW YORK, priority 2011, dated 2019)
Where two headings read alike, the source gives them in different places. Values belong to the compound of their own block, whether it stands above or below them.

Key:
[1] = test system: HT-29 human colon cancer cells; experiment: MTT cell growth inhibition, HT-29; type: cell-based; conditions: for IC50: Homo sapiens; for Ratio NSAID/NOSH-NSAID, HT-29: fold-enhancement in potency over the parent compound
Experimental: HT-29, SW-480 and HCT-15 human colon adenocarcinoma, MIA PaCa-2 and BxPC-3 human pancreatic cancer, LNCAP human prostate cancer, A549 human lung cancer, MCF-7 (estrogen receptor positive), MDA-MB 231 and SK-BR-3 (estrogen receptor negative) human breast cancer, and Jurkats human leukemia cell lines were obtained from American Type Tissue Collection (Manassas, Va.). All cells lines were grown as monolayers except for the Jurkats which were grown in suspension. The pancreatic and breast cancer cells were grown in Dulbecco's modified Eagle's medium, the prostate, Jurkat, SW-480 and HCT-15 colon cells were grown in RPMI 1640 medium, the lung cells were grown in F-12 and the colon HT-29 cells were grown in McCoy 5A. All media were supplemented with 10% fetal calf serum (Invitrogen, Carlsbad, Calif.) penicillin (50 U/ml), and streptomycin (50 μg/ml) (Invitrogen, Carlsbad, Calif.). Cells were seeded on culture dishes at a density of 25×10^3 cells/cm^2 and incubated at 37° C. in 5% CO2 and 90% relative humidity. Single cell suspensions were obtained by trypsinization (0.05% trypsin/EDTA), and cells were counted using a hemocytometer. Viability was determined by the trypan blue dye exclusion method.
Cell growth inhibitory effect of NOSH compounds were measured using a colorimetric MTT assay kit (Roche, Indianapolis, Ind.). Cancer cells were plated in 96-well plates at a density of 50,000 cells/well. The cells were incubated for 24 h with different concentrations of NOSH compounds. After the indicated time, 10 μl of MTT dye (3-[4,5-dimethylthiazol-2-yl]-2,5-diphenyl tetrazolium bromide, 5 mg/ml in phosphate buffered saline), was added to each well, and the plates were incubated for 2 hours at 37° C. Then, the media was aspirated, and add 100 μl of the solubilization solution (10% SDS in 0.01 M HCl) was added to each well to solubilize the formant crystals. The absorbance of the plates was measured on an ELISA reader at a wavelength of 570 nm. Each sample was performed in triplicate, and the entire experiment was repeated three times.
HT-29 human colon cancer cells were obtained from American Type Tissue Collection (Manassas, Va.) and grown as monolayer in McCoy 5A media that was supplemented with 10% fetal calf serum (Invitrogen, Carlsbad, Ca.), penicillin (50 U/ml), and streptomycin (50 μg/ml) (Invitrogen, Carlsbad, Calif.).
Growth inhibition was measured using a colorimetric MTT assay kit (Roche, Indianapolis, Ind.). Proliferation (PCNA) was assessed using an ELISA kit from Calbiochem, (La Jolla, Calif.). Cell cycle phase distributions and apoptosis of control and treated cells were determined as previously described. All methods are described in Chattopadhyay et al., Biochemical Pharmacology, 2012, 83(6), 715-722.
HT-29, SW-480 and HCT-15 human colon adenocarcinoma, MIA PaCa-2 and BxPC-3 human pancreatic cancer, LNCAP human prostate cancer, A549 and H383 human lung cancer, MCF-7, MDA-MB 231 and SK-BR-3 human breast cancer and Jurkat T cell human leukemia cell lines were obtained from American Type Tissue Collection (Manassas, Va.) All cells lines were grown as monolayers except for the Jurkat T cells which were grown as suspension culture. The pancreatic and breast cancer cells were grown in Dulbecco's modified Eagle's medium, the prostate, Jurkat, SW-480 and HCT-15 colon cells were grown in RPMI 1640 medium, the lung cells were grown in F-12 and the colon HT-29 cells were grown in McCoy 5A. All media were supplemented with 10% fetal calf serum (Invitrogen, Carlsbad, Calif.) penicillin (50 U/ml), and streptomycin (50 μg/ml) (Invitrogen, Carlsbad, Calif.). Cells were seeded on culture dishes at a density of 25×10^3 cells/cm^2 and incubated at 37° C. in 5% CO2 and 90% relative humidity. Single cell suspensions were obtained by trypsinization (0.05% trypsin/EDTA), and cells were counted using a hemacytometer. The final DMSO concentration was adjusted in all media to 1%. Viability was determined by the trypan blue dye exclusion method. […]

TNF-α = experiment: Plasma TNF-α enzyme immunoassay; type: in vivo, rat; conditions: for plasma TNFα concentration: rats, equimolar oral doses: ASA 180 (1 mmol/kg), NOSH-ASA 477, naproxen 80, NOSH-naproxen 188, sulindac 200, NOSH-sulindac 467 mg/kg, control 11±0.3; for plasma TNF-α (FIG. 3): P<0.01 vs vehicle, P<0.01 vs ASA
Experimental: Fresh samples of blood from the animals were taken by cardiac puncture into heparin-containing vials. The determination of plasma TNF-α was carried out by an enzyme immunoassay kit from R&D systems (Minneapolis, Minn.). Briefly, each sample (50 μL) was incubated with antibodies specific for rat TNF-α and washed three times with assay buffer. An enzyme-linked polyclonal antibody specific for rat TNF-α conjugated to horseradish peroxidase was then added to the wells. Following washing of unbound antibody-enzyme reagent, a substrate solution (containing tetramethylbenzidine, TMB, plus hydrogen peroxide) was added to the wells. The enzyme reaction yielded a blue product (oxidized TMB) that turned yellow when the stop solution (dilute hydrochloride acid) was added. The intensity of the color was determined by measuring the OD of the yellow color in a standard ELISA plate reader at 450 nm. Sensitivity of this TNF-α assay was determined by adding two standard deviations to the mean optical density value of 20× zero standard replicates and calculating the corresponding concentration. The kit contains all reagents and standards needed for the TNF-α sensitivity assay. The results are expressed as pg/mL.
This was done by an enzyme immunoassay kit from R&D systems (Minneapolis, Minn.) following the protocol described by the manufacturer. Briefly, fresh blood (50 μL) was incubated with antibodies specific for rat TNF-α and washed three times with assay buffer. An enzyme-linked polyclonal antibody specific for rat TNF-α conjugated to horseradish peroxidase was then added to the wells. Following washing of unbound antibody-enzyme reagent, a substrate solution (containing tetramethylbenzidine, TMB, plus hydrogen peroxide) was added to the wells. The enzyme reaction yielded a blue product (oxidized TMB) that turned yellow when the stop solution (dilute hydrochloride acid) was added. The intensity of this was measured at 450 nm. Sensitivity of this TNF-α assay was determined by adding two standard deviations to the mean optical density value of 20× zero standard replicates and calculating the corresponding concentration.

gastric mucosa = experiment: Gastric damage, ulcer index; type: in vivo, rat; conditions: rats, oral gavage, equimolar doses: ASA 180, NOSH-ASA 477, naproxen 80, NOSH-naproxen 188, sulindac 200, NOSH-sulindac 467 mg/kg; 6 h post-administration; vehicle UI=0
Experimental: The institutional animal care and research committees approved all experimental procedures described herein. Male Wistar rats (4 per group) weighing 180-200 g were obtained from Charles River Laboratories International (Wilmington, Mass.). The rats were fed standard laboratory chow and water. Rats were fasted for 48 h with free access to drinking water. […] Stomachs were then rapidly removed, cut along the greatest curvature, and rinsed with ice-cold distilled water. […] Tissues from stomachs were excised and processed for measurement of Prostaglandin E2 (PGE2), malondialdehyde (MDA) and Superoxide dismutase (SOD) activity.

[2] = HT-29, 24 hours (Table 7), read-out: IC50 for cell growth inhibition, Colon HT-29
[3] = HT-29, 24 hours, read-out: IC50 for cell growth inhibition, Colon HT-29
[4] = HT-29, 24 h (Table 5), in combinations the IC50 of ASA with fixed concentrations of SNAP and/or ADT-OH, read-out: IC50 at 24 hours for HT-29 cell growth inhibition
[5] = HT-29 cells, 24 h, read-out: IC50, 24 h
[6] = HT-29 colon cancer cells, 24 hours (Table 3), read-out: IC50 at 24 hours for cell growth inhibition

- IC50 [1, 2]: 800 µM
Compound: CC1=C(CC(=O)O)c2cc(F)ccc2/C1=C\c1ccc([S+](C)[O-])cc1 (stereo not shown) [sulindac, reference compound]
- plasma TNFα concentration (TNF-α): 230 ± 5 pg/mL
- gastric damage score, ulcer index (UI) (gastric mucosa): 130

- IC50 [1, 3]: 7.5 ± 0.355 µM
Compound: NC(=S)c1ccc(OC(=O)c2ccccc2OC(=O)CCCO[N+](=O)[O-])cc1 [NOSH-3, 4-carbamothioylphenyl 2-((4-(nitrooxy)butanoyl)-oxy)benzoate]

Compound: O=C(CCCO[N+](=O)[O-])Oc1ccccc1C(=O)Oc1ccc(-c2cc(=S)ss2)cc1 [NOSH-1, 4-(3-thioxo-3H-1,2-dithiol-5-yl)phenyl 2-((4-(nitrooxy)butanoyl)oxy)benzoate]
- potency of intact NOSH-1 over the combination ASA plus SNAP and ADT-OH ([1]; HT-29, 24 h): approximately 9000 fold
- Potency enhancement (ratio of IC50 values ASA/NOSH-1), 24 h ([1]; HT-29 cells, 24 h): >100,000 fold
- IC50 [1, 3]: 0.048 ± 0.003 µM
- IC50 [1, 4]: 0.05 ± 0.005 µM
- IC50 [1, 5]: 0.0455 ± 0.0025 µM
- IC50 [1, 6]: 0.05 ± 0.003 µM
- plasma TNF-α concentration (TNF-α; NOSH-1 0.21 mmol/kg): 55 ± 2 pg/mL
- plasma TNF-α concentration (TNF-α; NOSH-1 0.52 mmol/kg): 40 ± 3 pg/mL
- plasma TNF-α (FIG. 3) (TNF-α): significantly less
- plasma TNFα concentration (TNF-α): 75 ± 1 pg/mL
- gastric damage score, ulcer index (UI) (gastric mucosa): 2

Compound: CC(=O)Oc1ccccc1C(=O)O [ASA, aspirin, reference compound]
- IC50 [1, 4]: > 1000 µM
- IC50 [1, 5]: > 5000 µM
- IC50 [1, 6]: > 5000 µM
- increase of plasma TNF-α concentration over control (TNF-α; ASA 0.56 mmol/kg): about 20 fold
- plasma TNF-α concentration (TNF-α; ASA 0.56 mmol/kg, control 10±1): 200 ± 10 pg/mL
- increase of plasma TNFα concentration over control (TNF-α; ASA 1 mmol/kg): about 20 fold
- plasma TNF-α (FIG. 3) (TNF-α): significant rise
- plasma TNFα concentration (TNF-α): 190 ± 5 pg/mL

Compound: CC1=C(CC(=O)Oc2ccc(OC(=O)CCCO[N+](=O)[O-])c(C(=O)Oc3ccc(-c4cc(=S)ss4)cc3)c2)c2cc(F)ccc2/C1=C/c1ccc([S+](C)[O-])cc1 (stereo not shown) [NOSH-8, (E)-4-(3-thioxo-3H-1,2-dithiol-5-yl)phenyl 5-(2-(5-fluoro-2-methyl-1-(4-(methylsulfinyl)benzylidene)-1H-inden-3-yl)acetoxy)-2-((4-(nitrooxy)butanoyl)oxy)benzoate]
- IC50 [1, 2]: 0.089 µM
- Ratio NSAID/NOSH-NSAID, HT-29 [1]: 8,988
- plasma TNFα concentration (TNF-α): 50 ± 3 pg/mL
- gastric damage score, ulcer index (UI) (gastric mucosa): 10

- IC50 [1, 3]: 0.08 ± 0.005 µM
Compound: O=C(CCC(=O)Oc1ccccc1C(=O)Oc1ccc(-c2cc(=S)ss2)cc1)OCCCCO[N+](=O)[O-] [NOSH-2, 4-(nitrooxy)butyl (2-((4-(3-thioxo-3H-1,2-dithiol-5-yl)phenoxy)carbonyl)phenyl) succinate]

Compound: COc1ccc2cc([C@H](C)C(=O)O)ccc2c1 [naproxen, reference compound]
- IC50 [1, 2]: 2780 µM

- IC50 [1, 3]: 0.3 ± 0.035 µM
Compound: O=C(CCCC[C@@H]1CCSS1)Oc1ccccc1C(=O)OCCCCO[N+](=O)[O-] [NOSH-4, (R)-4-(nitrooxy)butyl 2-((5-(1,2-dithiolan-3-yl)pentanoyl)oxy)benzoate]

Compound: CC(C(=O)Oc1ccc(-c2cc(=S)ss2)cc1)c1ccc2cc(OC(=O)CCCO[N+](=O)[O-])ccc2c1 (stereo not shown) [NOSH-7, 6-(1-oxo-1-(4-(3-thioxo-3H-1,2-dithiol-5-yl)phenoxy)propan-2-yl)naphthalen-2-yl 4-(nitrooxy)butanoate]
- IC50 [1, 2]: 0.08 µM
- Ratio NSAID/NOSH-NSAID, HT-29 [1]: 34,687
- plasma TNFα concentration (TNF-α): 48 ± 2 pg/mL
- gastric damage score, ulcer index (UI) (gastric mucosa): 2
